This is an account of results in patent US20260297080A1, “BICYCLIC COMPOUNDS AS CDK INHIBITORS” (BeOne Medicines I GmbH, priority 2022, published 2026).

One assay addresses CDK1/Cyclin B1 (Homo sapiens, UniProt P06493). Nature of the assay: CDK1/Cyclin B1 Biochemical Assay (TR-FRET), 0.015 mM ATP. To be noted: 0.15 μM Rb (Ser780)-biotin substrate, pH7.0, 60 min preincubation, 120 min reaction, room temperature. The procedure, abridged:
(§1)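 Percent inhibition was derived from the 665 nm/620 nm TR-FRET ratio after a 120-minute room-temperature reaction on 0.15 μM Rb (Ser780)-biotin, preceded by 60-minute enzyme–compound preincubation. IC50 came from four-parameter logistic fitting.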

The target of a further assay is CDK2/Cyclin E1 (Homo sapiens, UniProt P24941). Put plainly: CDK2/Cyclin E1 Biochemical Assay (TR-FRET), 0.060 mM ATP. To be noted: 0.15 μM Rb (Ser780)-biotin substrate, pH7.0, 60 min preincubation, 120 min reaction, room temperature. The procedure, abridged:
as §1

CDK1/Cyclin B1, sequence (P06493 whole entry): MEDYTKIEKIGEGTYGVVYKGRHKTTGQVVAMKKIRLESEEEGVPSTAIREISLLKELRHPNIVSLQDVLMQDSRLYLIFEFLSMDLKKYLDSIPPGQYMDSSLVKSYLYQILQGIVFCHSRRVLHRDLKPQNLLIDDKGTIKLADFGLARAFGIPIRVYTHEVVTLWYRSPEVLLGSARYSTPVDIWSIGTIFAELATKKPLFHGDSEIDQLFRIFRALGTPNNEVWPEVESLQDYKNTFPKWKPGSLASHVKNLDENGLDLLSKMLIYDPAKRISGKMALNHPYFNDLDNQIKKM
CDK1/Cyclin B1, sequence (P14635 whole entry partner): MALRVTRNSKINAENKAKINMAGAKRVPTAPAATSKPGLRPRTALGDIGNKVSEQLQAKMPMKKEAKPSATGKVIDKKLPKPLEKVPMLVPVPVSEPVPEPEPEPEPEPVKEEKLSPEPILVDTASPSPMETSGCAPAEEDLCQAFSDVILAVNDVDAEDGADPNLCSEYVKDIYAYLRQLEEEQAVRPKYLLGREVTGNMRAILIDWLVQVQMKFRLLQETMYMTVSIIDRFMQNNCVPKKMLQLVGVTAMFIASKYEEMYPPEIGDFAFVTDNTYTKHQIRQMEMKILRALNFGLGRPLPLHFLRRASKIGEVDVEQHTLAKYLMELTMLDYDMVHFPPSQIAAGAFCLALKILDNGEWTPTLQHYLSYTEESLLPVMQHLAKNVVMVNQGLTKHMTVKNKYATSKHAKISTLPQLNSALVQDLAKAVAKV

As for `CC[C@H](C)NC(=O)O[C@H]1CC[C@@H](c2cc(Nc3ccc4c(c3F)C(C)(C)NS4(=O)=O)n[nH]2)C1` (relative stereo) [Example 57, cis-3-(3-((4-fluoro-3,3-dimethyl-1,1-dioxido-2,3-dihydrobenzo[d]isothiazol-5-yl)amino)-1H-pyrazol-5-yl)cyclopentyl((S)-sec-butyl)carbamate], the half-inhibitory concentration (IC50) stood at 1.08 µM at CDK1/Cyclin B1 and 0.048 µM at CDK2/Cyclin E1.
On the same counts, the results for `CCCNC(=O)O[C@H]1CC[C@@H](c2cc(Nc3ccc4c(c3F)C(C)(C)NS4(=O)=O)n[nH]2)C1` (relative stereo) [Example 58, cis-3-(3-((4-fluoro-3,3-dimethyl-1,1-dioxido-2,3-dihydrobenzo[d]isothiazol-5-yl)amino)-1H-pyrazol-5-yl)cyclopentyl propylcarbamate] are 0.694 µM and 0.093 µM.
The corresponding values for `CC(C)NC(=O)O[C@H]1CC[C@@H](c2cc(Nc3ccc4c(c3F)C(=O)NS4(=O)=O)n[nH]2)C1` (relative stereo) [Example 59, cis-3-(3-((4-fluoro-1,1-dioxido-3-oxo-2,3-dihydrobenzo[d]isothiazol-5-yl)amino)-1H-pyrazol-5-yl)cyclopentyl isopropylcarbamate] are 0.296 µM and 0.0058 µM.
The corresponding values for `CCN1Cc2c(ccc(Nc3cc([C@@H]4CC[C@H](OC(=O)NC(C)C)C4)[nH]n3)c2F)S1(=O)=O` (relative stereo) [Example 60, cis-3-(3-((2-ethyl-4-fluoro-1,1-dioxido-2,3-dihydrobenzo[d]isothiazol-5-yl)amino)-1H-pyrazol-5-yl)cyclopentyl isopropylcarbamate] are 0.497 µM and 0.0092 µM.
On to `CC(C)NC(=O)O[C@H]1CC[C@@H](c2cc(Nc3ccc4c(c3F)CN(C3CCCN(C)C3)S4(=O)=O)n[nH]2)C1` (relative stereo) [Example 61, cis-3-(3-((4-fluoro-2-(1-methylpiperidin-3-yl)-1,1-dioxido-2,3-dihydrobenzo[d]isothiazol-5-yl)amino)-1H-pyrazol-5-yl)cyclopentyl isopropylcarbamate], for which the IC50 against CDK1/Cyclin B1 came out at 0.836 µM; on CDK2/Cyclin E1 it was 0.01 µM.
On the same counts, the results for `CC(C)NC(=O)O[C@H]1CC[C@@H](c2cc(Nc3ccc4c(c3F)CN(C3CCN(C)CC3)S4(=O)=O)n[nH]2)C1` (relative stereo) [Example 62, cis-3-(3-((4-fluoro-2-(1-methylpiperidin-4-yl)-1,1-dioxido-2,3-dihydrobenzo[d]isothiazol-5-yl)amino)-1H-pyrazol-5-yl)cyclopentyl isopropylcarbamate] are 0.758 µM and 0.0095 µM.
As for `CC(C)NC(=O)O[C@H]1CC[C@@H](c2cc(Nc3ccc4c(c3F)CN(C3CCN(Cc5ccccc5)CC3)S4(=O)=O)n[nH]2)C1` (relative stereo) [Example 63, cis-3-(3-((2-(1-benzylpiperidin-4-yl)-4-fluoro-1,1-dioxido-2,3-dihydrobenzo[d]isothiazol-5-yl)amino)-1H-pyrazol-5-yl)cyclopentyl isopropylcarbamate], the IC50 turned out to be 1.11 µM on CDK1/Cyclin B1 and 0.023 µM against CDK2/Cyclin E1.
On the same counts, the results for `COCCN1Cc2c(ccc(Nc3cc([C@@H]4CC[C@H](OC(=O)NC(C)C)C4)[nH]n3)c2F)S1(=O)=O` (relative stereo) [Example 64, cis-3-(3-((4-fluoro-2-(2-methoxyethyl)-1,1-dioxido-2,3-dihydrobenzo[d]isothiazol-5-yl)amino)-1H-pyrazol-5-yl)cyclopentyl isopropylcarbamate] are 0.214 µM and 0.0046 µM.
On the same counts, the results for `CC(C)NC(=O)O[C@H]1CC[C@@H](c2cc(Nc3ccc4c(c3F)CN(C(C)C)S4(=O)=O)n[nH]2)C1` (relative stereo) [Example 65, cis-3-(3-((4-fluoro-2-isopropyl-1,1-dioxido-2,3-dihydrobenzo[d]isothiazol-5-yl)amino)-1H-pyrazol-5-yl)cyclopentyl isopropylcarbamate] are 0.299 µM and 0.0069 µM.
As to `CC(C)NC(=O)O[C@H]1CC[C@@H](c2cc(Nc3ccc4c(c3F)CN(CC(F)(F)F)S4(=O)=O)n[nH]2)C1` (relative stereo) [Example 66, cis-3-(3-((4-fluoro-1,1-dioxido-2-(2,2,2-trifluoroethyl)-2,3-dihydrobenzo[d]isothiazol-5-yl)amino)-1H-pyrazol-5-yl)cyclopentyl isopropylcarbamate], the figures for the IC50 at CDK1/Cyclin B1 and at CDK2/Cyclin E1 were 0.412 µM and 0.0073 µM, respectively.
On the same counts, the results for `CC(C)NC(=O)O[C@H]1CC[C@@H](c2cc(Nc3ccc4c(c3F)CN(C3CCC3)S4(=O)=O)n[nH]2)C1` (relative stereo) [Example 67, cis-3-(3-((2-cyclobutyl-4-fluoro-1,1-dioxido-2,3-dihydrobenzo[d]isothiazol-5-yl)amino)-1H-pyrazol-5-yl)cyclopentyl isopropylcarbamate] are 0.472 µM and 0.014 µM.
With `CC(C)NC(=O)O[C@H]1CC[C@@H](c2cc(Nc3ccc4c(c3F)CN(C3CCCC3)S4(=O)=O)n[nH]2)C1` (relative stereo) [Example 68, cis-3-(3-((2-cyclopentyl-4-fluoro-1,1-dioxido-2,3-dihydrobenzo[d]isothiazol-5-yl)amino-1H-pyrazol-5-yl)cyclopentyl isopropylcarbamate], the values for the IC50 against CDK1/Cyclin B1 and at CDK2/Cyclin E1 were 1.18 µM and 0.015 µM, respectively.
For `CC(C)NC(=O)O[C@H]1CC[C@@H](c2cc(Nc3ccc4c(c3F)CN(C3CCOC3)S4(=O)=O)n[nH]2)C1` (relative stereo) [Example 69, cis-3-(3-((4-fluoro-1,1-dioxido-2-(tetrahydrofuran-3-yl)-2,3-dihydrobenzo[d]isothiazol-5-yl)amino)-1H-pyrazol-5-yl)cyclopentyl isopropylcarbamate], the IC50 on CDK1/Cyclin B1 was determined as 0.647 µM; against CDK2/Cyclin E1, 0.0095 µM.
On the same counts, the results for `CC(C)NC(=O)O[C@H]1CC[C@@H](c2cc(Nc3ccc4c(c3F)CN(C3CCN(C)C3)S4(=O)=O)n[nH]2)C1` (relative stereo) [Example 70, cis-3-(3-((4-fluoro-2-(1-methylpyrrolidin-3-yl)-1,1-dioxido-2,3-dihydrobenzo[d]isothiazol-5-yl)amino-1H-pyrazol-5-yl)cyclopentyl isopropylcarbamate] are 0.503 µM and 0.011 µM.
Consider `CC(C)NC(=O)O[C@H]1CC[C@@H](c2cc(Nc3ccc4c(c3F)CN(CC(O)CO)S4(=O)=O)n[nH]2)C1` (relative stereo) [Example 71, cis-3-(3-((2-(2,3-dihydroxypropyl)-4-fluoro-1,1-dioxido-2,3-dihydrobenzo[d]isothiazol-5-yl)amino)-1H-pyrazol-5-yl)cyclopentyl isopropylcarbamate], for which the results for the IC50 against CDK1/Cyclin B1 and against CDK2/Cyclin E1 were 0.44 µM and 0.0052 µM, respectively.
On the same counts, the results for `CC(C)NC(=O)O[C@H]1CC[C@@H](c2cc(Nc3ccc4c(c3F)CN(CC(O)CO)S4(=O)=O)nn2CC(O)CO)C1` (relative stereo) [Example 72, cis-3-(1-(2,3-dihydroxypropyl)-3-((2-(2,3-dihydroxypropyl)-4-fluoro-1,1-dioxido-2,3-dihydrobenzo[d]isothiazol-5-yl)amino)-1H-pyrazol-5-yl)cyclopentyl isopropylcarbamate] are above 10 µM and 5.91 µM.
The corresponding values for `CC(C)NC(=O)O[C@H]1CC[C@@H](c2cc(Nc3ccc4c(c3F)CN(CCCN(C)C)S4(=O)=O)n[nH]2)C1` (relative stereo) [Example 73, cis-3-(3-((2-(3-(dimethylamino)propyl)-4-fluoro-1,1-dioxido-2,3-dihydrobenzo[d]isothiazol-5-yl)amino)-1H-pyrazol-5-yl)cyclopentyl isopropylcarbamate] are 0.583 µM and 0.0079 µM.
As to `CC(C)NC(=O)O[C@H]1CC[C@@H](c2cc(Nc3ccc4c(c3F)CN(CCN(C)C)S4(=O)=O)n[nH]2)C1` (relative stereo) [Example 74, cis-3-(3-((2-(2-(dimethylamino)ethyl)-4-fluoro-1,1-dioxido-2,3-dihydrobenzo[d]isothiazol-5-yl)amino-1H-pyrazol-5-yl)cyclopentyl isopropylcarbamate], the IC50 against CDK1/Cyclin B1 amounted to 0.962 µM; against CDK2/Cyclin E1 it was 0.016 µM.
On the same counts, the results for `CC(C)NC(=O)O[C@H]1CC[C@@H](c2cc(Nc3ccc4c(c3F)CN(Cc3ccccc3)S4(=O)=O)n[nH]2)C1` (relative stereo) [Example 75, cis-3-(3-((2-benzyl-4-fluoro-1,1-dioxido-2,3-dihydrobenzo[d]isothiazol-5-yl)amino)-1H-pyrazol-5-yl)cyclopentyl isopropylcarbamate] are 1.08 µM and 0.016 µM.
The corresponding values for `CC(C)NC(=O)O[C@H]1CC[C@@H](c2cc(Nc3ccc4c(c3F)CN(CC(C)(C)O)S4(=O)=O)n[nH]2)C1` (relative stereo) [Example 76, cis-3-(3-((4-fluoro-2-(2-hydroxy-2-methylpropyl)-1,1-dioxido-2,3-dihydrobenzo[d]isothiazol-5-yl)amino)-1H-pyrazol-5-yl)cyclopentyl isopropylcarbamate] are 0.416 µM and 0.01 µM.
The corresponding values for `CC(C)NC(=O)O[C@H]1CC[C@@H](c2cc(Nc3ccc4c(c3F)CN(C3CCN(S(C)(=O)=O)CC3)S4(=O)=O)n[nH]2)C1` (relative stereo) [Example 77, cis-3-(3-((4-fluoro-2-(1-(methylsulfonyl)piperidin-4-yl)-1,1-dioxido-2,3-dihydrobenzo[d]isothiazol-5-yl)amino)-1H-pyrazol-5-yl)cyclopentyl isopropylcarbamate] are 0.621 µM and 0.01 µM.
